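In this assay, cells in 96-well plates receive the compound at five concentrations for 48 hours. Endpoints are linearly interpolated between the surrounding concentrations. GI50 marks 50% less growth.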 Calls of active or inactive are those of the source. Rule as the data show it: active = GI50 up to about 1.1 µM and inactive = higher.
Assays:
Test in all cases: DTP human tumour cell line panel, 48 h
MDA-N = tested on: MDA-N
Malme-3M = tested on: Malme-3M
SF-268 = tested on: SF-268
OVCAR-4 = tested on: OVCAR-4
K562 = tested on: K562
COLO 205 = tested on: COLO 205
M14 = tested on: M14
HCT-15 = tested on: HCT-15
MOLT-4 = tested on: MOLT-4
SK-MEL-5 = tested on: SK-MEL-5
SR = tested on: SR
PC-3 = tested on: PC-3
IGROV-1 = tested on: IGROV-1
OVCAR-3 = tested on: OVCAR-3
OVCAR-5 = tested on: OVCAR-5
HL-60 = tested on: HL-60
Hs-578T = tested on: Hs-578T
RXF 393 = tested on: RXF 393
CCRF-CEM = tested on: CCRF-CEM
MCF7 = tested on: MCF7
SNB-19 = tested on: SNB-19
HCT-116 = tested on: HCT-116
SNB-75 = tested on: SNB-75
786-0 = tested on: 786-0
NCI-H23 = tested on: NCI-H23
LOX IMVI = tested on: LOX IMVI
SF-295 = tested on: SF-295
HOP-62 = tested on: HOP-62
KM12 = tested on: KM12
SF-539 = tested on: SF-539
RPMI-8226 = tested on: RPMI-8226
SK-MEL-2 = tested on: SK-MEL-2
EKVX = tested on: EKVX
SW-620 = tested on: SW-620
UO-31 = tested on: UO-31
CAKI-1 = tested on: CAKI-1
NCI-H226 = tested on: NCI-H226
NCI/ADR-RES = tested on: NCI/ADR-RES
ACHN = tested on: ACHN
A498 = tested on: A498
UACC-257 = tested on: UACC-257
UACC-62 = tested on: UACC-62
A549 = tested on: A549
OVCAR-8 = tested on: OVCAR-8
SK-MEL-28 = tested on: SK-MEL-28
MDA-MB-231 = tested on: MDA-MB-231
HCC 2998 = tested on: HCC 2998
BT-549 = tested on: BT-549
HT-29 = tested on: HT-29
HOP-92 = tested on: HOP-92
MDA-MB-435 = tested on: MDA-MB-435
NCI-H522 = tested on: NCI-H522
U-251 = tested on: U-251
NCI-H460 = tested on: NCI-H460
T47D = tested on: T47D
SK-OV-3 = tested on: SK-OV-3
SN12C = tested on: SN12C
DU-145 = tested on: DU-145
TK-10 = tested on: TK-10

C(/C=N/N=C1NCCN1)=N\N=C1NCCN1
GI50 (MDA-N): > 100 µM (inactive) | GI50 (Malme-3M): > 100 µM (inactive) | GI50 (SF-268): > 100 µM (inactive) | GI50 (OVCAR-4): > 100 µM (inactive) | GI50 (K562): 17.8 µM (inactive) | GI50 (COLO 205): > 100 µM (inactive) | GI50 (M14): > 100 µM (inactive) | GI50 (HCT-15): > 100 µM | GI50 (MOLT-4): > 100 µM (inactive) | GI50 (SK-MEL-5): > 100 µM (inactive) | GI50 (SR): > 100 µM (inactive) | GI50 (PC-3): > 100 µM (inactive) | GI50 (IGROV-1): > 100 µM (inactive) | GI50 (OVCAR-3): > 100 µM (inactive) | GI50 (OVCAR-5): > 100 µM (inactive) | GI50 (HL-60): 12.5 µM (inactive) | GI50 (Hs-578T): > 100 µM (inactive) | GI50 (RXF 393): > 100 µM (inactive) | GI50 (CCRF-CEM): > 100 µM (inactive) | GI50 (MCF7): > 100 µM (inactive) | GI50 (SNB-19): > 100 µM (inactive) | GI50 (HCT-116): > 100 µM (inactive) | GI50 (SNB-75): 47.3 µM (inactive) | GI50 (786-0): > 100 µM (inactive) | GI50 (NCI-H23): > 100 µM (inactive) | GI50 (LOX IMVI): > 100 µM (inactive) | GI50 (SF-295): > 100 µM (inactive) | GI50 (HOP-62): > 100 µM (inactive) | GI50 (KM12): > 100 µM (inactive) | GI50 (SF-539): > 100 µM (inactive) | GI50 (RPMI-8226): > 100 µM (inactive) | GI50 (SK-MEL-2): > 100 µM (inactive) | GI50 (EKVX): > 100 µM (inactive) | GI50 (SW-620): > 100 µM (inactive) | GI50 (UO-31): > 100 µM (inactive) | GI50 (CAKI-1): > 100 µM (inactive) | GI50 (NCI-H226): > 100 µM (inactive) | GI50 (NCI/ADR-RES): > 100 µM (inactive) | GI50 (ACHN): > 100 µM (inactive) | GI50 (A498): > 100 µM (inactive) | GI50 (UACC-257): > 100 µM (inactive) | GI50 (UACC-62): > 100 µM (inactive) | GI50 (A549): > 100 µM (inactive) | GI50 (OVCAR-8): > 100 µM (inactive) | GI50 (SK-MEL-28): > 100 µM (inactive) | GI50 (MDA-MB-231): > 100 µM (inactive) | GI50 (HCC 2998): > 100 µM (inactive) | GI50 (BT-549): > 100 µM (inactive) | GI50 (HT-29): > 100 µM (inactive) | GI50 (HOP-92): > 100 µM (inactive) | GI50 (MDA-MB-435): > 100 µM (inactive) | GI50 (NCI-H522): 72.3 µM (inactive) | GI50 (U-251): > 100 µM (inactive) | GI50 (NCI-H460): > 100 µM (inactive) | GI50 (T47D): > 100 µM (inactive) | GI50 (SK-OV-3): > 100 µM (inactive)

CCCCCCCCCCCCCCCCCCNc1ccn(C2OC(CO)C(OP(=O)(O)OCC3CCC(n4ccc(N)nc4=O)O3)C2O)c(=O)n1 (centres undefined)
GI50 (MDA-N): > 100 µM (inactive) | GI50 (Malme-3M): 21.1 µM (inactive) | GI50 (SF-268): 27.9 µM (inactive) | GI50 (OVCAR-4): 93.8 µM (inactive) | GI50 (COLO 205): 45.9 µM (inactive) | GI50 (M14): 42.3 µM (inactive) | GI50 (HCT-15): 40.3 µM | GI50 (MOLT-4): 3.9 µM (inactive) | GI50 (SK-MEL-5): > 100 µM (inactive) | GI50 (PC-3): 17.4 µM (inactive) | GI50 (SN12C): > 100 µM (inactive) | GI50 (IGROV-1): 27.2 µM (inactive) | GI50 (OVCAR-3): > 100 µM (inactive) | GI50 (OVCAR-5): 57.7 µM (inactive) | GI50 (HL-60): 17.1 µM (inactive) | GI50 (Hs-578T): > 100 µM (inactive) | GI50 (RXF 393): 15.6 µM (inactive) | GI50 (CCRF-CEM): 16.7 µM (inactive) | GI50 (SNB-19): > 100 µM (inactive) | GI50 (DU-145): > 100 µM (inactive) | GI50 (TK-10): 42.1 µM (inactive) | GI50 (HCT-116): 66.5 µM (inactive) | GI50 (SNB-75): 62.2 µM (inactive) | GI50 (786-0): > 100 µM (inactive) | GI50 (NCI-H23): > 100 µM (inactive) | GI50 (LOX IMVI): 32.3 µM (inactive) | GI50 (SF-295): > 100 µM (inactive) | GI50 (HOP-62): > 100 µM (inactive) | GI50 (KM12): 36.3 µM (inactive) | GI50 (SF-539): 32.7 µM (inactive) | GI50 (SK-MEL-2): > 100 µM (inactive) | GI50 (EKVX): > 100 µM (inactive) | GI50 (SW-620): 46.3 µM (inactive) | GI50 (UO-31): 22.2 µM (inactive) | GI50 (CAKI-1): > 100 µM (inactive) | GI50 (NCI-H226): > 100 µM (inactive) | GI50 (NCI/ADR-RES): > 100 µM (inactive) | GI50 (ACHN): > 100 µM (inactive) | GI50 (UACC-257): > 100 µM (inactive) | GI50 (UACC-62): > 100 µM (inactive) | GI50 (A549): > 100 µM (inactive) | GI50 (OVCAR-8): > 100 µM (inactive) | GI50 (SK-MEL-28): 61.5 µM (inactive) | GI50 (MDA-MB-231): > 100 µM (inactive) | GI50 (BT-549): 30.8 µM (inactive) | GI50 (HT-29): 42.5 µM (inactive) | GI50 (HOP-92): > 100 µM (inactive) | GI50 (MDA-MB-435): > 100 µM (inactive) | GI50 (NCI-H522): 28.6 µM (inactive) | GI50 (U-251): > 100 µM (inactive) | GI50 (NCI-H460): 55.8 µM (inactive) | GI50 (T47D): 83.4 µM (inactive) | GI50 (SK-OV-3): > 100 µM (inactive)
